# Molecular target: T1, BsuCA 1 (Brucella suis, UniProt A0A0H3GDA4)
# T1 construct: gene BS1330_I1823
# Conditions: activation constant (not association constant); activator; CO2 substrate; 10 mM Tris pH 8.4, 0.1 M Na2SO4, 25 °C; 15 min pre-incubation
# T1 sequence (A0A0H3GDA4 1-213): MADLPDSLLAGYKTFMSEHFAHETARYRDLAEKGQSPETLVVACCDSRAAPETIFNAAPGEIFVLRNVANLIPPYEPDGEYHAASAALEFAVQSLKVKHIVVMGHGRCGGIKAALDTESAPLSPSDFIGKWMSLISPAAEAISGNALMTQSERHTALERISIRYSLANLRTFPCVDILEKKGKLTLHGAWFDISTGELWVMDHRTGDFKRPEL
row,SMILES,KA (μM)^a / BsuCA1 ^c [µM]
1,"N[C@@H](Cc1cnc[nH]1)C(=O)O [compound 1, L-His]",1.76
2,"N[C@H](Cc1ccccc1)C(=O)O [compound 4, D-Phe]",1.21
3,"N[C@@H](Cc1ccc(O)c(O)c1)C(=O)O [compound 5, L-DOPA]",2.07
4,"N[C@@H](Cc1c[nH]c2ccccc12)C(=O)O [compound 7, L-Trp]",1.25
5,"N[C@@H](Cc1ccc(O)cc1)C(=O)O [compound 9, L-Tyr]",1.38
6,"N[C@H](Cc1ccc(O)cc1)C(=O)O [compound 10, D-Tyr]",0.95
7,"Nc1ccc(C[C@H](N)C(=O)O)cc1 [compound 11, 4-H2N-L-Phe]",1.18
8,"NCCc1ccc(O)c(O)c1 [compound 13, Dopamine]",1.54
9,"NCc1ccccn1 [compound 15, 2-Pyridyl-methylamine]",1.62
10,"CNC[C@H](O)c1ccc(O)c(O)c1 [compound 19, L-Adrenaline]",0.70
11,"N[C@H](CCC(=O)O)C(=O)O [compound 23, D-Glu]",1.39

# Molecular target: T2, FtuCA (Francisella tularensis, UniProt Q5NH77)
# T2 construct: gene cynT
# Conditions: activation constant (not association constant); activator; CO2 substrate; 10 mM Tris pH 8.4, 0.1 M Na2SO4, 25 °C; 15 min pre-incubation
# T2 sequence (Q5NH77 1-228): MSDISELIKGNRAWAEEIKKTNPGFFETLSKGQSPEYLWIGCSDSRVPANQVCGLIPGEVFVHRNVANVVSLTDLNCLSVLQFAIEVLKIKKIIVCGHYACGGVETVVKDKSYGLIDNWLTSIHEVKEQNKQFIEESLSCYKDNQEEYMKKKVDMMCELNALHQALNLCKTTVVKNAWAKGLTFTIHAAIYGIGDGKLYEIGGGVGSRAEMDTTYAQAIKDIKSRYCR
row,SMILES,KA (μM)^a / FtuCA^c [µM]
1,"N[C@@H](Cc1cnc[nH]1)C(=O)O [compound 1, L-His]",40.7
2,"N[C@H](Cc1ccc(O)c(O)c1)C(=O)O [compound 6, D-DOPA]",44.8
3,"N[C@@H](Cc1c[nH]c2ccccc12)C(=O)O [compound 7, L-Trp]",34.1
4,"N[C@H](Cc1c[nH]c2ccccc12)C(=O)O [compound 8, D-Trp]",30.5
5,"NCc1ccccn1 [compound 15, 2-Pyridyl-methylamine]",46.3
6,"NCCN1CCNCC1 [compound 17, 1-(2-Aminoethyl)-piperazine]",51.8
7,"N[C@@H](CCC(=O)O)C(=O)O [compound 22, L-Glu]",9.13
8,"NC(=O)CC[C@H](N)C(=O)O [compound 24, L-Gln]",45.7

# Source: publication PMC6691884 (Journal of Enzyme Inhibition and Medicinal Chemistry, 2019)
